Target: T1, purified sGC (bovine lung soluble guanylyl cyclase) (Bos taurus, UniProt P16068)
T1 construct: gene GUCY1B1; native enzyme purified from bovine lung; with Guanylate cyclase soluble subunit alpha-1
T1 sequence (P16068 1-619): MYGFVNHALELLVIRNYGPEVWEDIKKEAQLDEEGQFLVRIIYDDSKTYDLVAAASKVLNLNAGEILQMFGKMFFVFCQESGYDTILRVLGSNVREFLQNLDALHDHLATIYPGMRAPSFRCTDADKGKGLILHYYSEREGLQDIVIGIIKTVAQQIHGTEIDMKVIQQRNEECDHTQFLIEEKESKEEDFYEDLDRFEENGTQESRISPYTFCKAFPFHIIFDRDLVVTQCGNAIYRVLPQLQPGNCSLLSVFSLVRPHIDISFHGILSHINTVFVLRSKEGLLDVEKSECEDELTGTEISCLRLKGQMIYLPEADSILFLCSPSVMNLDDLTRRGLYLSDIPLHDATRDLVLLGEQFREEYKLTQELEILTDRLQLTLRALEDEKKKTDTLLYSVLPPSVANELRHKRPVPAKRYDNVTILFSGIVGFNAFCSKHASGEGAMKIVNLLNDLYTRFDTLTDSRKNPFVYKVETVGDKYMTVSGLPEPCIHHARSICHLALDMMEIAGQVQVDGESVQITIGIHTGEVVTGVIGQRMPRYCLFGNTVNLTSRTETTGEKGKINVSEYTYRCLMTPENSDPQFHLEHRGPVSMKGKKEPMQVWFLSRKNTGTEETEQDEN
T1 sequence (P19687 1-691 partner): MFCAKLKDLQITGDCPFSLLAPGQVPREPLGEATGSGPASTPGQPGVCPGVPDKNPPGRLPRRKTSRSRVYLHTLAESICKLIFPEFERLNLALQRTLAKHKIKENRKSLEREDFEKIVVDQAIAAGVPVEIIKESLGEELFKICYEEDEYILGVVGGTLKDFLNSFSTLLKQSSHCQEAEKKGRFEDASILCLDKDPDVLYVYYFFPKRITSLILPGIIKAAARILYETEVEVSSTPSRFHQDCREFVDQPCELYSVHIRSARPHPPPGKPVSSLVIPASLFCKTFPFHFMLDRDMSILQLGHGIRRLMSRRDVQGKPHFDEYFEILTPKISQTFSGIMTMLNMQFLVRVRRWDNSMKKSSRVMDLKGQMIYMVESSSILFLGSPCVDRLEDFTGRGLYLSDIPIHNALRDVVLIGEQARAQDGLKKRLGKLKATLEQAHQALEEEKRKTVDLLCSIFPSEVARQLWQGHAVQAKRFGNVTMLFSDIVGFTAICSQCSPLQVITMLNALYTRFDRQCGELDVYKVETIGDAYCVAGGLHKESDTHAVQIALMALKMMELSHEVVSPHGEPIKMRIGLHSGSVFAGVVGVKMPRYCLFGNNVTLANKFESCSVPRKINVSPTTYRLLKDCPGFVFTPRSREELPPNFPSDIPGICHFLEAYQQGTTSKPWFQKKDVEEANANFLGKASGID
Assay: […]cGMP formation from [alpha-32P]GTP by purified sGC
Format: biochemical
Conditions: 0.5 mM GTP, 3 mM MgCl2, 1 mM cGMP, 0.5% Tween 20 (heme-depleted enzyme), TEA/HCl pH 7.4, 37 °C, no extract; NO-independent heme-site activator

O=C(O)CCCCN(CCc1ccccc1OCc1ccc(CCc2ccccc2)cc1)Cc1ccc(C(=O)O)cc1 [cinaciguat]
cGMP formation (activation): cGMP formation by Tween 20-treated sGC in the presence of the NO-independent heme-site activator cinaciguat

From paper PMC10517138, “Varied effects of tobacco smoke and e-cigarette vapor suggest that nicotine does not affect endothelium-dependent relaxation and nitric oxide signaling” (Scientific Reports, 2023)
